Experimental data from patent publication EP3353259B1, “SILYL MODIFIED POLYMER SEALANT” (Strongbond B.V., priority 2015, dated 2017).

Experiment: not given
Settings: not given
Procedure: (§1) All ingredients except the Tegokat are added to a Hauschild cup and mixed in a Hauschild mixer for 60 seconds. Than the catalyst is added and mixed for another 30 seconds. Additionally UV- and light stabilizers, pigments etc. may be added in the first or second step.
In fig.6 the degradation time in hours at 150°C is plotted versus the time in days prior to cure at 40°C. On the horizontal axis the time the sealant was stored at 40°C before cure in days is given, showing the storage stability of the anti-oxidant, and on the vertical axis the time in hours to degradation at 150°C, showing the effectiveness of the anti-oxidant after storage of the sealant. This test may be seen as a stress test for both storage stability of the sealant as subsequent oxidation stability. The line represents the present situation using Irganox 1135 commonly applied in the sealant.
In fig. 8 a similar test as in fig. 6 is performed with the above mentioned anti-oxidants.
At present samples have been tested of a commercial STP (or SMP) sealant containing Irganox 1035, Irganox 1330 and a mixture thereof. The total antioxidant content of all samples is 4 g/kg STP polymer. The samples are stored in an oven at 40°C. The degradation times are determined at 150°C as a function of storage time. Furthermore, tensile tests are performed directly and after dumbbells used in said tests are exposed to 100°C for 1000 hours. This is done on freshly prepared sealants and sealants that have been stored at 40°C for 4 weeks.

Structure (SMILES) | Degradation time after 7 days @ 40°C | Initial degradation Time | Relative decrease degradation time after 7days @ 40°C
Cc1cc(CCC(=O)OCCOCCOCCOC(=O)CCc2cc(C)c(O)c(C(C)(C)C)c2)cc(C(C)(C)C)c1O [Irganox 245] | 2 h | 9 h | 22%
CCCCCCCCSc1nc(Nc2cc(C(C)(C)C)c(O)c(C(C)(C)C)c2)nc(SCCCCCCCC)n1 [Irganox 565] | 9 h | 16 h | 56%
CC(C)(C)c1cc(CCC(=O)OCC(COC(=O)CCc2cc(C(C)(C)C)c(O)c(C(C)(C)C)c2)(COC(=O)CCc2cc(C(C)(C)C)c(O)c(C(C)(C)C)c2)COC(=O)CCc2cc(C(C)(C)C)c(O)c(C(C)(C)C)c2)cc(C(C)(C)C)c1O [Irganox 1010] | 3 h | 24 h | 13%
CC(C)(C)c1cc(CCC(=O)OCCSCCOC(=O)CCc2cc(C(C)(C)C)c(O)c(C(C)(C)C)c2)cc(C(C)(C)C)c1O [Irganox 1035] | 2 h | 16 h | 13%
Cc1c(Cc2cc(C(C)(C)C)c(O)c(C(C)(C)C)c2)c(C)c(Cc2cc(C(C)(C)C)c(O)c(C(C)(C)C)c2)c(C)c1Cc1cc(C(C)(C)C)c(O)c(C(C)(C)C)c1 [Irganox 1330] | 21 h | 34 h | 62%

Experiment: Cure of MS-kit with 4-dodecylbenzenesulfonic acid (comparative example 1a-b)
Format: physicochemical
Settings: added instead of a tin-catalyst
Procedure: as §1

Structure (SMILES) | cure
CCCCCCCCCCCCc1ccc(S(=O)(=O)O)cc1 [4-dodecylbenzenesulfonic acid] | no cure was observed

Same assay, conditions: after addition of a tin catalyst

Structure (SMILES) | cure
CCCCCCCCCCCCc1ccc(S(=O)(=O)O)cc1 [4-dodecylbenzenesulfonic acid] | behaved as without 4-dodecylbenzenesulfonic acid

Experiment: Oxidation resistance of MS-kit with dodecylsulfide (comparative example 2a-d)
Format: physicochemical
Settings: up to 5% added to a standard mix with and without Irganox 1135, compared to standard mixture without dodecylsulfide
Procedure: Up to 5% dodecylsulfide was added to a standard mix with and without Irganox 1135. No change in oxidation resistance was found compared to the standard mixture with or without Irganox 1135 not containing dodecylsulfide.

Structure (SMILES) | oxidation resistance
CCCCCCCCCCCCSCCCCCCCCCCCC [dodecylsulfide] | No change
